We go through three molecules from patent US8703698B2, “Compositions and methods for treating atherosclerosis” (The University of Chicago, priority 2003, dated 2014).

Data set [1] concerns [3H]-cholesterol-loaded J774 macrophages. As to the kind of experiment: In vivo cholesterol efflux to plasma in mice injected with [3H]-cholesterol-loaded J774 macrophages. Conditions: for [3H]-cholesterol efflux as plasma radioactivity (dpm) (FIG. 1): intravenous liposomes containing 0.5 μM peptide, 24 hours after macrophages. How it is done:
In these experiments, in vivo cholesterol export was determined in mice injected with J774 macrophages cholesterol-loaded with RBC membranes and [^3H]-cholesterol. Two hundred thousand macrophages in 100:1 PBS were injected into each mouse through the tail vein. At various time points thereafter, approximately 25:1 of blood were collected from the tail vein of each animal into heparinized capillary tubes. The tubes were then centrifuged for 5 minutes in an Adams Autocrit Centrifuge to separate red blood cells from plasma. Cholesterol efflux was determined by measuring the appearance of [^3H]-cholesterol in plasma by scintillation spectrometry. To study whether export of cholesterol from J774 cells to plasma was influenced by non-liposome formulated D-27mer peptide (SEQ ID NO:10), 24 hours after injection of cholesterol-loaded J774 macrophages into mice, the same animals received, by intravenous injection, 30 μg, 60 μg, 150 μg, 225 μg, 300 μg or 600 μg of D-27mer. All these amounts of D-peptides were dissolved in 100:l of phosphate buffered saline and injected through the tail vein of each animal.
Additional in vivo studies have also been conducted wherein mice were first injected intravenously with [^3H]cholesterol-laden macrophages and then injected 24 hours later with liposomes containing 0.5 μM of synthetic peptides corresponding to amino acid residues 1-20, 21-50, 51-80 or 74-103 of murine SAA2.1. Results from this study are depicted in FIG. 1. At time points indicated in the graph of FIG. 1, approximately 25 μl of blood were collected from the tail vein of each animal. The blood samples were centrifuged to separate the red blood cells from the plasma and the [^3H]-cholesterol in plasma was determined by scintillation counting. Results are mean±SEM of four determinations.
To determine cholesterol export in vivo, J774 macrophages were cholesterol-loaded with red blood cell membranes and [^3H]-cholesterol as described above. Cells were washed four times with PBS/BSA and then detached from the culture dishes. Five million cells in 200 μl DMEM were injected into control mice or inflamed mice through the tail vein. At various time points, approximately 25 μl of blood were collected from the tail vein of each animal into heparinized capillary tubes and then centrifuged for 5 minutes in an Adams Autocrit Centrifuge to separate red blood cells from plasma. Cholesterol efflux was determined by measuring the appearance of [^3H]-cholesterol in plasma by scintillation spectrometry.
J774 cells cultured in 6-well plates were enriched with cholesterol by incubating with red blood cell (RBC) membrane fragments (175:g as cholesterol) that had been previously labeled with 0.5:Ci/ml [^3H]-cholesterol at 37° C. for 24 hours in 0.2% bovine serum albumin (BSA). After loading with the labelled RBC membrane for 6 hours, cells were then washed with phosphate-buffered saline/BSA (PBS/BSA) three times followed by an 18 hour equilibration period during which monolayers were exposed to DMEM/BSA. To determine cholesterol export in vivo, J774 macrophages were cholesterol-loaded with RBC membranes and [^3H]-cholesterol as described previously above. Cells were washed four times with PBS/BSA and then detached from the culture dishes. Two hundred thousand cells in 100:l PBS were injected into mice through the tail vein. At various time points thereafter, approximately 25:l of blood were collected from the tail vein of each animal into heparinized capillary tubes. These tubes were then centrifuged for 5 minutes in an Adams Autocrit Centrifuge to separate red blood cells from plasma. Cholesterol efflux was determined by measuring the appearance of [^3H]-cholesterol in plasma by scintillation spectrometry. […]

Data set [2] relates to cholesterol ester hydrolase. As to the kind of experiment: Rate of hydrolysis of cholesteryl ester in cholesterol-laden J774 cells (cholesterol ester hydrolase activity). The format is cell-based, murine.

In the case of “DTIADQEANRHGRSGKDPNYYRPPGLPDKY [SEQ ID NO:4, synthetic peptide, residues 74-103 of murine SAA2.1]”, the “[3H]-cholesterol efflux as plasma radioactivity (dpm) (FIG. 1)” value in data set [1] was “dramatically increased”. Besides, the “increase in cholesterol ester hydrolase activity” value in data set [2] (liposomes containing 0.5 μl synthetic peptide, cholesterol-laden J774 cells, Sandoz 58-035 present, 0 to 24 hours) worked out at 3 fold.
Regarding “GFFSFVHEAFQGAGDMWRAY [SEQ ID NO:1, synthetic peptide, residues 1-20 of murine SAA2.1]”, in data set [1], the “[3H]-cholesterol efflux as plasma radioactivity (dpm) (FIG. 1)” value is on record as “dramatically increased”. Also, the “rate of hydrolysis of [14C]-labeled cholesteryl oleate versus protein-free liposomes” value in data set [2] (liposomes containing 0.5 μl synthetic peptide, J774 cells, Sandoz 58-035 present) is listed as “no significant differences”.

B1: GFFSFVHEAFQGAGDMWRAYTDMKEANWKNSDKYFHARGNYDAAQRGPGGVWAAEKISD GREAFQEFFGRGHEDTIADQEANRHGRSGKDPNYYRPPGLPDKY (protein, listed as Mus musculis)
chain: GFFSFVHEAFQGAGDMWRAYTDMKEANWKNSDKYFHARGNYDAAQRGPGGVWAAEKISDGREAFQEFFGRGHEDTIADQEANRHGRSGKDPNYYRPPGLPDKY
notes: full length murine serum amyloid A isoform 2.1 purified from acute phase plasma
Take B1: the “cholesterol release from macrophages pretreated with protein liposomes and injected into un-inflamed mice” value in data set [1] (cholesterol-loaded macrophages pretreated with liposomes, injected intravenously) is “recapitulated the major cholesterol releasing effect”. Further, the “radiolabeled cholesterol exported in the plasma (FIG. 15)” value in data set [1] (non-liposome formulated, in 100 μl PBS, intravenous, 15 μg/mouse peptide or 75 μg/mouse full length protein) is listed as “exceeded the increase observed following administration of the D-27mer peptide”. Besides, the “cholesterol ester hydrolase activity in intact cholesterol-laden macrophages” value in data set [2] (lipoproteins or protein liposomes, tissue culture) is listed as “enhancement of cholesterol ester hydrolase activity”.
